From patent publication US8921362B2, “6,7-dialkoxy quinazoline derivatives and methods of treating drug resistant and other tumors” (Natco Pharma Limited, priority 2008, dated 2014)

Assays:
Test in all cases: KinomeScan
Assay type in all cases: binding
Details in all cases: read-out: % Ctrl @ 10000 nM
[1] = target: T1, EGFR(L747-E749del, A750P) (Homo sapiens, UniProt P00533, A750P/DEL747-749)
T1 construct: purchased Ambit Biosciences Corp (KinomeScan); host or cells: T7 phage in E. coli host derived from BL21
Procedure: (§1) Kinase assays: Assays were performed as described in Fabian et al. (2005) Nature Biotechnology, vol. 23, p. 329. Kinase-tagged T7 phage strains were grown in parallel in 24 or 96-well blocks in an E. coli host derived from the BL21 strain. E. coli were grown to log-phase and infected with T7 phage from a frozen stock (multiplicity of infection ˜0.1) and incubated with shaking at 32° C. until lysis (−90 minutes). The lysates were centrifuged and filtered to remove cell debris. […] The liganded beads were blocked with excess biotin and washed with blocking buffer (SeaBlock (Pierce), 1% BSA, 0.05% Tween 20, 1 mM DTT) to remove unbound ligand and to reduce non-specific phage binding.
(§2) Test compounds were prepared as 40× stocks in DMSO and diluted into the aqueous environment. 2.5% DMSO was added to control assays lacking a test compound. All reactions were performed in polystyrene 96-well plates that had been pretreated with blocking buffer in a final volume of 0.04 ml. […] The phage titer in the eluates was measured by quantitative PCR.

PIM3 = target: T2, PIM3 (Homo sapiens, UniProt Q86V86)
T2 construct: host or cells: T7 phage in E. coli host derived from BL21
Procedure: as §1, §2

ZAP70 = target: T3, ZAP70 (Homo sapiens, UniProt P43403)
T3 construct: host or cells: T7 phage grown in an E. coli host derived from BL21
Procedure: as §1, §2

AKT1 = target: T4, AKT1 (Homo sapiens, UniProt P31749)
T4 construct: host or cells: E. coli (BL21-derived), T7 phage lysate
Procedure: as §1, §2

CLK1 = target: T5, CLK1 (Homo sapiens, UniProt P49759)
T5 construct: host or cells: T7 phage in E. coli host derived from BL21
Procedure: as §1, §2

ROS1 = target: T6, ROS1 (Homo sapiens, UniProt P08922)
T6 construct: host or cells: E. coli host derived from BL21, T7 phage display
Procedure: as §1, §2

MET = target: T7, MET (Homo sapiens, UniProt P08581)
T7 construct: host or cells: E. coli host derived from the BL21 strain, infected with T7 phage
Procedure: as §1, §2

CAMK2G = target: T8, CAMK2G (Homo sapiens, UniProt Q13555)
T8 construct: host or cells: E. coli host derived from BL21
Procedure: as §1, §2

ACVR1B = target: T9, ACVR1B (Homo sapiens, UniProt P36896)
T9 construct: host or cells: E. coli (BL21-derived), T7 phage lysate
Procedure: as §1, §2

TAOK3 = target: T10, TAOK3 (Homo sapiens, UniProt Q9H2K8)
T10 construct: host or cells: T7 phage grown in E. coli (BL21-derived)
Procedure: as §1, §2

HCK = target: T11, HCK (Homo sapiens, UniProt P08631)
T11 construct: host or cells: T7 phage in E. coli host derived from BL21
Procedure: as §1, §2

EGFR(L747-T751del, Sins) = target: T12, EGFR(L747-T751del, Sins) (Homo sapiens, UniProt P00533, DEL747-750/T751S)
T12 construct: purchased Ambit Biosciences Corp; host or cells: T7 phage in E. coli host derived from BL21
Procedure: as §1, §2

SRPK3 = target: T13, SRPK3 (Homo sapiens, UniProt Q9UPE1)
T13 construct: host or cells: T7 phage grown in E. coli (BL21-derived)
Procedure: as §1, §2

GSK3A = target: T14, GSK3A (Homo sapiens, UniProt P49840)
T14 construct: host or cells: T7 phage in E. coli host derived from BL21
Procedure: as §1, §2

FES = target: T15, FES (Homo sapiens, UniProt P07332)
T15 construct: host or cells: T7 phage in E. coli host derived from BL21
Procedure: as §1, §2

MLCK = target: T16, MLCK (Homo sapiens, UniProt Q32MK0)
T16 construct: host or cells: T7 phage grown in E. coli host derived from BL21
Procedure: as §1, §2

PDGFRA = target: T17, PDGFRA (Homo sapiens, UniProt P16234)
T17 construct: host or cells: E. coli host derived from BL21, infected with T7 phage
Procedure: as §1, §2

EPHB4 = target: T18, EPHB4 (Homo sapiens, UniProt P54760)
T18 construct: purchased Ambit Biosciences Corp; host or cells: T7 phage in E. coli host derived from BL21
Procedure: as §1, §2

PDGFRB = target: T19, PDGFRB (Homo sapiens, UniProt P09619)
T19 construct: host or cells: E. coli host derived from BL21, infected with T7 phage
Procedure: as §1, §2

PIK3C2B = target: T20, PIK3C2B (Homo sapiens, UniProt O00750)
T20 construct: host or cells: E. coli host derived from BL21, infected with T7 phage
Procedure: as §1, §2

PRKD1 = target: T21, PRKD1 (Homo sapiens, UniProt Q15139)
T21 construct: host or cells: T7 phage in E. coli host derived from BL21
Procedure: as §1, §2

YANK2 = target: T22, YANK2 (Homo sapiens, UniProt Q9NY57)
T22 construct: host or cells: E. coli host derived from BL21, T7 phage
Procedure: as §1, §2

MRCKB = target: T23, MRCKB (Homo sapiens, UniProt Q9Y5S2)
T23 construct: host or cells: T7 phage grown in E. coli host derived from BL21
Procedure: as §1, §2

YANK3 = target: T24, YANK3 (Homo sapiens, UniProt Q86UX6)
T24 construct: host or cells: E. coli host derived from BL21, T7 phage
Procedure: as §1, §2

SRMS = target: T25, SRMS (Homo sapiens, UniProt Q9H3Y6)
T25 construct: host or cells: T7 phage grown in E. coli (BL21-derived)
Procedure: as §1, §2

NEK6 = target: T26, NEK6 (Homo sapiens, UniProt Q9HC98)
T26 construct: host or cells: T7 phage grown in E. coli host derived from BL21
Procedure: as §1, §2

PIK3CA = target: T27, PIK3CA (Homo sapiens, UniProt P42336)
T27 construct: host or cells: E. coli host derived from BL21, infected with T7 phage
Procedure: as §1, §2

DRAK1 = target: T28, DRAK1 (Homo sapiens, UniProt Q9UEE5)
T28 construct: purchased Ambit Biosciences Corp (KinomeScan); host or cells: T7 phage in E. coli host derived from BL21
Procedure: as §1, §2

TAOK1 = target: T29, TAOK1 (Homo sapiens, UniProt Q7L7X3)
T29 construct: host or cells: T7 phage grown in E. coli (BL21-derived)
Procedure: as §1, §2

CDK7 = target: T30, CDK7 (Homo sapiens, UniProt P50613)
T30 construct: host or cells: T7 phage in E. coli host derived from BL21
Procedure: as §1, §2

NDR2 = target: T31, NDR2 (Homo sapiens, UniProt Q9Y2H1)
T31 construct: host or cells: T7 phage grown in E. coli host derived from BL21
Procedure: as §1, §2

WEE2 = target: T32, WEE2 (Homo sapiens, UniProt P0C1S8)
T32 construct: host or cells: E. coli host derived from BL21, T7 phage
Procedure: as §1, §2

TNK1 = target: T33, TNK1 (Homo sapiens, UniProt Q13470)
T33 construct: host or cells: E. coli host derived from BL21, T7 phage
Procedure: as §1, §2

T5 sequence (P49759 whole entry): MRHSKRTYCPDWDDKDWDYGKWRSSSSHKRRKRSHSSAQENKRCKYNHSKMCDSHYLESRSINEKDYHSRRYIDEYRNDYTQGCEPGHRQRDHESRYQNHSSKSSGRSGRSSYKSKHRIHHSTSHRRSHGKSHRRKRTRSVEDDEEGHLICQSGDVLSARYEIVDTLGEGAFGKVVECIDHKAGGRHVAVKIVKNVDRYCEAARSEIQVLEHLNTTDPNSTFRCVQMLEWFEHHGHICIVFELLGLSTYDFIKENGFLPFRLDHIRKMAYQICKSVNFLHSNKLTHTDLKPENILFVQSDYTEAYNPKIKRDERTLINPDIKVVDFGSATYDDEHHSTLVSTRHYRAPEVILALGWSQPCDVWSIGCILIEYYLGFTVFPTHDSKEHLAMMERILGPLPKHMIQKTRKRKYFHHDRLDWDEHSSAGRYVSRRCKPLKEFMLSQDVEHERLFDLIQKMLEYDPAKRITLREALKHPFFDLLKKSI
T7 sequence (P08581 25-1390): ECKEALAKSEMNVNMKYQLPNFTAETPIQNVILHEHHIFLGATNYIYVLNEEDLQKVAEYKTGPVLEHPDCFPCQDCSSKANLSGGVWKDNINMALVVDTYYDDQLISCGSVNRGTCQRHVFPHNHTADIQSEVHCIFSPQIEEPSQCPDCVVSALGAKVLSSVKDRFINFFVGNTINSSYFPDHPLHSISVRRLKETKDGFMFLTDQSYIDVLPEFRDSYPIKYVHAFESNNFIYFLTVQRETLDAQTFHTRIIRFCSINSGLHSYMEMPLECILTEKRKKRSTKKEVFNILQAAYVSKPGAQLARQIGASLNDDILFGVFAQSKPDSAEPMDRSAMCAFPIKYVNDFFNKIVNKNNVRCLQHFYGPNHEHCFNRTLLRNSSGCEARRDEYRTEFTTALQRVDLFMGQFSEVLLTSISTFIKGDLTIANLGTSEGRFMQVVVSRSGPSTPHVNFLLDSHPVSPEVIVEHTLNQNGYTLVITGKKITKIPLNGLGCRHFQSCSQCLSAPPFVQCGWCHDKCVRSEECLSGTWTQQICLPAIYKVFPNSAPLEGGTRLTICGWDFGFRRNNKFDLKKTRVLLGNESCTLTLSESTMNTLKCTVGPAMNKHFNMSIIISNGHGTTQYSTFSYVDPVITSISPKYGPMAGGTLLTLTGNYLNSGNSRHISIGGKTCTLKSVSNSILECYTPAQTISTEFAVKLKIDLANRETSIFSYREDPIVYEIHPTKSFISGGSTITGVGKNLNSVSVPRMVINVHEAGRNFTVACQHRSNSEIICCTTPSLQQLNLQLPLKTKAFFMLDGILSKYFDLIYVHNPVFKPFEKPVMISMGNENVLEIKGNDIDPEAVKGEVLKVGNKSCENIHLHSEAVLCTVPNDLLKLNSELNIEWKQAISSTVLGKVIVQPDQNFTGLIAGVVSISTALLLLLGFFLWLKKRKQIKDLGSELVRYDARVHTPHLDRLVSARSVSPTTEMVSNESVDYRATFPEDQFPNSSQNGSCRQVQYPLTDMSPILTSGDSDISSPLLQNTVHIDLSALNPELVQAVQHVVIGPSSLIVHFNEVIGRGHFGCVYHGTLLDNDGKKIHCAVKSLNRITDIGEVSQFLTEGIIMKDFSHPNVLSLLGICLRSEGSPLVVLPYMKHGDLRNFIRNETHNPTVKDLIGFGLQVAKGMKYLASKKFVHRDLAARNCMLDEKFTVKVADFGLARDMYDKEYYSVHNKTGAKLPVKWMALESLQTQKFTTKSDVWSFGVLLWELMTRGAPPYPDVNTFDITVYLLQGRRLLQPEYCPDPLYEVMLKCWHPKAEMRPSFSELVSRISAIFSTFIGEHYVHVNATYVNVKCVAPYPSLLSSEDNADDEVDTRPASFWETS
T32 sequence (P0C1S8 whole entry): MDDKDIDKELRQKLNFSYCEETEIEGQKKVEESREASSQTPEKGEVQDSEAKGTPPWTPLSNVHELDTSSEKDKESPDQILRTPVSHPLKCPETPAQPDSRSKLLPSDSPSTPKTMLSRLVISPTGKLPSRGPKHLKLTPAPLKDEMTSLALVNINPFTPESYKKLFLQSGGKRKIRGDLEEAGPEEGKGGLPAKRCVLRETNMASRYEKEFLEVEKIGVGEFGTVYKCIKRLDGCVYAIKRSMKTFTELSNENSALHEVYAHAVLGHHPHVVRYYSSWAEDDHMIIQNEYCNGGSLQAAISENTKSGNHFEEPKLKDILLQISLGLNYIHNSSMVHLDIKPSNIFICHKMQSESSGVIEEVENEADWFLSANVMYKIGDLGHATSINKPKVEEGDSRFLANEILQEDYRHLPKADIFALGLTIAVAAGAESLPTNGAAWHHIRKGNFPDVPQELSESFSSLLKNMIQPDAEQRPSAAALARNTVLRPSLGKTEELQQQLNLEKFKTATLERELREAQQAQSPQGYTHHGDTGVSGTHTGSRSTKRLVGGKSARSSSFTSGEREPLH
T29 sequence (Q7L7X3 whole entry): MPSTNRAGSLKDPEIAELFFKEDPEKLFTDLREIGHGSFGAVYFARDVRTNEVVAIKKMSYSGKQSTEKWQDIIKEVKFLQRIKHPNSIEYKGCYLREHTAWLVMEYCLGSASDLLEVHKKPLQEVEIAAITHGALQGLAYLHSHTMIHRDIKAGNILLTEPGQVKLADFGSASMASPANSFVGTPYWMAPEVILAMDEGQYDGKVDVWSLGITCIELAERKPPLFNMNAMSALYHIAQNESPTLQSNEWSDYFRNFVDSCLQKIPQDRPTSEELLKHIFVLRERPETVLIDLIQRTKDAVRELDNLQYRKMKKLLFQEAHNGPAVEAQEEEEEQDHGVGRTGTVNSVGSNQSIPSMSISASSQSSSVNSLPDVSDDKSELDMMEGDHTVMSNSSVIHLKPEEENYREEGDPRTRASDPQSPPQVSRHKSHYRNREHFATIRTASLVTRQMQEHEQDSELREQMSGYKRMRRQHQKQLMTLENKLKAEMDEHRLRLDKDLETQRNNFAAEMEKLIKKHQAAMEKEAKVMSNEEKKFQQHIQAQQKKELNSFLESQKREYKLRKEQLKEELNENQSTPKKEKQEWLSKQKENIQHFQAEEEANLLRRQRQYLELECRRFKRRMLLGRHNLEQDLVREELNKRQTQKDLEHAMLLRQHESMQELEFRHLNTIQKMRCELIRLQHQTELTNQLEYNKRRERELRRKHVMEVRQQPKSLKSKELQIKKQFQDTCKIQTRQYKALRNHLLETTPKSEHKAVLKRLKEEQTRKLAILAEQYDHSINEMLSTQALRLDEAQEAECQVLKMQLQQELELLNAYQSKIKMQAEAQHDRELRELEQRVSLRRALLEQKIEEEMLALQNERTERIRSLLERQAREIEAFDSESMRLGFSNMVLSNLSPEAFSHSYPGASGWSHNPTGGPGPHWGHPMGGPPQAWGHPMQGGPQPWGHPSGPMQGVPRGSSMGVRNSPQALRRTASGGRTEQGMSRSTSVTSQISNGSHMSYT
T3 sequence (P43403 whole entry): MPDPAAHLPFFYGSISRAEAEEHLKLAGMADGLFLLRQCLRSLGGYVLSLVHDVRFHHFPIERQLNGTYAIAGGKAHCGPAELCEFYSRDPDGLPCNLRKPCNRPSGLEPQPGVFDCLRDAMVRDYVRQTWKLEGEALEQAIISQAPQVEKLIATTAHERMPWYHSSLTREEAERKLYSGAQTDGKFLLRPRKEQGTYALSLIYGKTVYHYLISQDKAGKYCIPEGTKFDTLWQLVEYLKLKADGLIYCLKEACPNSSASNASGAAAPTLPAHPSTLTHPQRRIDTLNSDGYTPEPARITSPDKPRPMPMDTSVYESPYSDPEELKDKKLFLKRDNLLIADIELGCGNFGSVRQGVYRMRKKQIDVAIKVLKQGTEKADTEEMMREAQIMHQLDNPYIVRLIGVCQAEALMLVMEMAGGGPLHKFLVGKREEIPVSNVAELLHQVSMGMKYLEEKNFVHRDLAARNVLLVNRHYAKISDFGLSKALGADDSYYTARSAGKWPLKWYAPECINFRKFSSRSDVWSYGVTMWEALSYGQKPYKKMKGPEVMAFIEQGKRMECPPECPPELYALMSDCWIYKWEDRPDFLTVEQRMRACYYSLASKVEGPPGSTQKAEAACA
T11 sequence (P08631 whole entry): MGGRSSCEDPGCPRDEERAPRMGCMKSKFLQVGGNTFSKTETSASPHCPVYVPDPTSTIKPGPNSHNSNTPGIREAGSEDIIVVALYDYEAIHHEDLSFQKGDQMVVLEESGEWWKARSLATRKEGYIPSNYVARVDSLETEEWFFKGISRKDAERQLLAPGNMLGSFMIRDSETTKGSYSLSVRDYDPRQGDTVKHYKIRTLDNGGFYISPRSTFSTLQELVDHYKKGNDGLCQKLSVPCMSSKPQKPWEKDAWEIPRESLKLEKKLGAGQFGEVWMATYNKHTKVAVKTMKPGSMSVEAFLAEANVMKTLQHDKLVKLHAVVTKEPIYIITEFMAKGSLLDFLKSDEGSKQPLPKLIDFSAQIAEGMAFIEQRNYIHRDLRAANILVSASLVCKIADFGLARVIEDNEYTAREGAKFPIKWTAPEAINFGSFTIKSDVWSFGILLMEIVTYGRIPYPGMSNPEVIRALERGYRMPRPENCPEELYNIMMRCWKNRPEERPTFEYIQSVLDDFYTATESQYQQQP

`C#Cc1cccc(Nc2ncnc3cc(OC)c(OCCCN4CCOCC4)cc23)c1` [NRC-2694, N-(3-ethynylphenyl)-7-methoxy-6-[3-(4-morpholinyl)propoxy]-4-quinazolinamine] was tested, and the remaining binding at 10 µM [1] was 0%, the remaining binding at 10 µM (PIM3) was 23% and the remaining binding at 10 µM (ZAP70) was 100%. For the same compound, the remaining binding at 10 µM (AKT1) was 100%, the remaining binding at 10 µM (CLK1) was 31% and the remaining binding at 10 µM (ROS1) was 46%. It also gave a remaining binding at 10 µM (MET) of 33%, a remaining binding at 10 µM (CAMK2G) of 58% and a remaining binding at 10 µM (ACVR1B) of 63%. For the same compound, the remaining binding at 10 µM (TAOK3) was 76%, the remaining binding at 10 µM (HCK) was 17% and the remaining binding at 10 µM (EGFR(L747-T751del, Sins)) was 0%. It also gave a remaining binding at 10 µM (SRPK3) of 38%, a remaining binding at 10 µM (GSK3A) of 75% and a remaining binding at 10 µM (FES) of 72%. It also gave a remaining binding at 10 µM (MLCK) of 77%, a remaining binding at 10 µM (PDGFRA) of 50% and a remaining binding at 10 µM (EPHB4) of 39%. The remaining binding at 10 µM (PDGFRB) was 10%, the remaining binding at 10 µM (PIK3C2B) was 93% and the remaining binding at 10 µM (PRKD1) was 9.6%. The remaining binding at 10 µM (YANK2) was 68%, the remaining binding at 10 µM (MRCKB) was 71% and the remaining binding at 10 µM (YANK3) was 100%. It also gave a remaining binding at 10 µM (SRMS) of 100%, a remaining binding at 10 µM (NEK6) of 94% and a remaining binding at 10 µM (PIK3CA) of 100%. The remaining binding at 10 µM (DRAK1) was 51%, the remaining binding at 10 µM (TAOK1) was 54% and the remaining binding at 10 µM (CDK7) was 0.55%. The remaining binding at 10 µM (NDR2) was 74%, the remaining binding at 10 µM (WEE2) was 53% and the remaining binding at 10 µM (TNK1) was 41%.
